Structures can show the parent of a compound that is named as a salt.

The data set can be described thus: collision cross section in nitrogen (drift tube, single-field); higher = larger gas-phase ion size.
[1] abbreviates: ion type: [M+H], ion source: ESI, ion mode: Positive.
Where [2] appears, read: ion type: [M+H], ion source: APCI, ion mode: Positive.
[3] abbreviates: ion type: [M+Na], ion source: ESI, ion mode: Positive.
[4] abbreviates: ion type: [M+], ion source: APCI, ion mode: Positive.
[5] abbreviates: ion type: [M-H], ion source: ESI, ion mode: Negative.
The mark [6] stands for this setting: ion source: APCI, ion mode: Positive, ion type: [M]+ (permanent cation).
Setting [7] is: ion source: ESI, ion mode: Positive, ion type: [M]+ (permanent cation).
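Further: chemical standards at 10 µM analysed by drift tube IMS-QTOF MS in about 3.95 torr nitrogen, mean of duplicate injections differing ≤1%, mass error below 10 ppm.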

With `CNc1cccc2c1C(=O)c1ccccc1C2=O` [1-(Methylamino)anthraquinone], the “collision cross section in nitrogen” value under setting [1] came out at 151.6 Å².

As for `Cc1ccccc1NC(=N)NC(=N)N` [1-(o-Tolyl)biguanide], the “collision cross section in nitrogen” value is 144.7 Å² under setting [2], 144.7 Å² under setting [1] and 148.5 Å² under setting [3].

As to `Cc1ccc2c(c1N)C(=O)c1ccccc1C2=O` [1-Amino-2-methylanthraquinone], the “collision cross section in nitrogen” value worked out at 153.6 Å² under setting [2], 153.2 Å² under setting [1], 147.6 Å² under setting [4] and 150.1 Å² under setting [5].

Regarding `CC=Cc1ccc(OCc2ccccc2)c(OC)c1` [1-Benzyloxy-2-methoxy-4-(1-propenyl)benzene], the “collision cross section in nitrogen” value under setting [3] amounted to 172.2 Å².

For the compound `c1ccc(C[n+]2cccc3ccccc32)cc1` [1-Benzylquinolinium chloride], the “collision cross section in nitrogen” value runs as follows: under setting [6], 147.6 Å²; under setting [7], 148 Å².

For `CCCC[N+]1(C)CCCC1` [1-Butyl-1-methylpyrrolidinium chloride], the “collision cross section in nitrogen” value by setting is: under setting [6], 131.2 Å²; under setting [7], 132.4 Å².

`CCCCn1cc[n+](C)c1` [1-Butyl-3-methylimidazolium chloride]: the “collision cross section in nitrogen” value is, setting by setting: under setting [6], 129 Å²; under setting [7], 128.9 Å².

Turning to `FC(F)(F)c1ccc(Cl)cc1` [1-Chloro-4-(trifluoromethyl)benzene], the “collision cross section in nitrogen” value under setting [1] came to 142.6 Å².

Take `O=C1CCCN1C1CCCCC1` [1-Cyclohexylpyrrolidin-2-one]: the “collision cross section in nitrogen” value runs as follows: under setting [2], 139.2 Å²; under setting [1], 140.3 Å²; under setting [3], 157.7 Å².

On to `CCCCCCCCCCCCN` [1-Dodecanamine], for which the “collision cross section in nitrogen” value under setting [1] turned out to be 164 Å².

On to `CCCCCCCCCCCCN1CCCC1=O` [1-Dodecyl-2-pyrrolidinone], for which the “collision cross section in nitrogen” value was found to be 176.3 Å² under setting [1] and 176.6 Å² under setting [3].

For the compound `CCN1CCCC1=O` [1-Ethyl-2-pyrrolidinone], the “collision cross section in nitrogen” value under setting [2] is listed as 121.7 Å².

As for `On1nnc2ccccc21` [1-Hydroxybenzotriazole], the “collision cross section in nitrogen” value runs as follows: under setting [2], 124.9 Å²; under setting [1], 125.9 Å²; under setting [5], 122.6 Å².

Consider `Oc1ccc2ccc3cccc4ccc1c2c34` [1-Hydroxypyrene], for which the “collision cross section in nitrogen” value under setting [4] worked out at 141.9 Å² and the “collision cross section in nitrogen” value under setting [5] came out at 146.2 Å².

Turning to `Cn1c(=S)[nH]c2ccccc21` [1-Methyl-1,3-dihydro-2H-benzimidazole-2-thione], the “collision cross section in nitrogen” value under setting [2] was 130.7 Å², the “collision cross section in nitrogen” value under setting [1] is listed as 130.9 Å², the “collision cross section in nitrogen” value under setting [4] was 127.9 Å² and the “collision cross section in nitrogen” value under setting [5] turned out to be 131.4 Å².

`CNC(=N[N+](=O)[O-])NCC1CCOC1` (configuration not stated) [1-Methyl-2-nitro-3-((tetrahydrofuran-3-yl)methyl)guanidine]: the “collision cross section in nitrogen” value is on record as 150.6 Å² under setting [3] and 148.7 Å² under setting [5].

In the case of `Cn1cc(-c2ccccc2)c(=O)c(-c2cccc(C(F)(F)F)c2)c1` [1-Methyl-3-phenyl-5-(3-(trifluoromethyl)phenyl)-4-pyridone], the “collision cross section in nitrogen” value was 179.6 Å² under setting [2], 179.8 Å² under setting [1], 187.5 Å² under setting [3] and 178.9 Å² under setting [5].

On to `CCCCCCCCCCCC(=O)OCC(O)CO` (configuration not stated) [1-Monolaurin], for which the “collision cross section in nitrogen” value under setting [3] is recorded as 176.3 Å².

Consider `Nc1cccc2ccccc12` [1-Naphthylamine], for which the “collision cross section in nitrogen” value is, setting by setting: under setting [1], 127.6 Å²; under setting [4], 125 Å².

For `CCCCCCCCN1CCCC1=O` [1-Octyl-2-pyrrolidone], the “collision cross section in nitrogen” value runs as follows: under setting [2], 158.6 Å²; under setting [1], 158.5 Å².

`O=C1C=CC(=O)N1c1ccccc1` [1-Phenyl-1H-pyrrole-2,5-dione]: the “collision cross section in nitrogen” value under setting [1] worked out at 135.3 Å².

As for `CC1=NN(c2ccccc2)C(=O)C1` [1-Phenyl-3-methyl-5-pyrazolone], the “collision cross section in nitrogen” value was 137.7 Å² under setting [1] and 137.8 Å² under setting [5].

Take `OCCN1CCNCC1` [1-Piperazineethanol]: the “collision cross section in nitrogen” value under setting [2] worked out at 124.7 Å² and the “collision cross section in nitrogen” value under setting [1] came to 125.6 Å².

For `CC(=O)NCCCS(=O)(=O)O` [1-Propanesulfonic acid, 3-(acetylamino)-, calcium salt (2:1)], under setting [5], the “collision cross section in nitrogen” value is reported as 134.9 Å².

Turning to `CC(O)CN(CCCN(C)C)CCCN(C)C` (configuration not stated) [1-{Bis[3-(dimethylamino)propyl]amino}propan-2-ol], the “collision cross section in nitrogen” value under setting [2] is given as 157.5 Å², the “collision cross section in nitrogen” value under setting [1] worked out at 158.1 Å² and the “collision cross section in nitrogen” value under setting [3] worked out at 158.4 Å².

Regarding `c1nc[nH]n1` [1H-1,2,4-Triazole], the “collision cross section in nitrogen” value under setting [5] came out at 107.7 Å².

As to `O=C1NC(=O)c2cccc3cccc1c23` [1H-Benzo[de]isoquinoline-1,3(2H)-dione], under setting [5], the “collision cross section in nitrogen” value was found to be 140.8 Å².

Consider `N=C1NC(=N)c2ccccc21` [1H-Isoindole-1,3(2H)-diimine], for which the “collision cross section in nitrogen” value under setting [1] stood at 126.4 Å².

For the compound `O=C1OC2(c3ccccc31)c1cc(Br)c(O)c(Br)c1Oc1c2cc(Br)c(O)c1Br` [2',4',5',7'-Tetrabromofluorescein], the “collision cross section in nitrogen” value is, setting by setting: under setting [1], 204.7 Å²; under setting [5], 208.7 Å².

Regarding `CCCC(=O)c1cc(O)c(O)cc1O` [2',4',5'-Trihydroxybutyrophenone], the “collision cross section in nitrogen” value under setting [5] is given as 141.3 Å².

Take `O=c1cccc[nH]1` [2(1H)-Pyridinone]: the “collision cross section in nitrogen” value under setting [1] is 115.5 Å².

`OCCN(CCO)CCN(CCO)CCO` [2,2',2'',2'''-(1,2-Ethanediyldinitrilo)tetrakisethanol]: the “collision cross section in nitrogen” value is, setting by setting: under setting [2], 149.2 Å²; under setting [1], 149.6 Å²; under setting [3], 151.1 Å².

As for `O=C(c1ccc(O)cc1O)c1ccc(O)cc1O` [2,2',4,4'-Tetrahydroxybenzophenone], the “collision cross section in nitrogen” value under setting [5] is reported as 152.3 Å².

`Nc1cc(Cl)c(-c2cc(Cl)c(N)cc2Cl)cc1Cl` [2,2',5,5'-Tetrachlorobenzidine]: the “collision cross section in nitrogen” value under setting [4] was 164.9 Å² and the “collision cross section in nitrogen” value under setting [5] was determined as 167.6 Å².

Take `CC(C)(c1cc(Cl)c(O)c(Cl)c1)c1cc(Cl)c(O)c(Cl)c1` [2,2',6,6'-Tetrachlorobisphenol A]: under setting [5], the “collision cross section in nitrogen” value is reported as 184.3 Å².

Regarding `CCC(CO)(CO)COCC(CC)(CO)CO` [2,2'-(Oxydimethanediyl)bis(2-ethylpropane-1,3-diol)], the “collision cross section in nitrogen” value reads like this: under setting [3], 159.6 Å²; under setting [5], 158.6 Å².

As to `CCCCCCCCCCCCCCN(CCO)CCO` [2,2'-(Tetradecylimino)diethanol], the “collision cross section in nitrogen” value by setting is: under setting [2], 193 Å²; under setting [1], 193.2 Å²; under setting [3], 187.4 Å².

Consider `c1ccc(-c2ccccn2)nc1` [2,2'-Bipyridine], for which the “collision cross section in nitrogen” value is 126.4 Å² under setting [2] and 127 Å² under setting [1].

Turning to `O=C(Nc1ccccc1SSc1ccccc1NC(=O)c1ccccc1)c1ccccc1` [2,2'-Dibenzoylaminodiphenyl disulfide], the “collision cross section in nitrogen” value is, setting by setting: under setting [2], 194.6 Å²; under setting [1], 194 Å²; under setting [3], 203 Å²; under setting [5], 206 Å².

The record behind these values is the supplement of paper PMC12317010.
